The record followed here is patent publication US20260109708A1, “COMPOUNDS AND COMPOSITIONS USEFUL AS DEGRADERS OF MK2 KINASE” (Celgene Corporation, priority 2023, published 2026).

A word on the IC50: it is the concentration at which inhibition is half-maximal.

T1 sequence (P49137 whole entry): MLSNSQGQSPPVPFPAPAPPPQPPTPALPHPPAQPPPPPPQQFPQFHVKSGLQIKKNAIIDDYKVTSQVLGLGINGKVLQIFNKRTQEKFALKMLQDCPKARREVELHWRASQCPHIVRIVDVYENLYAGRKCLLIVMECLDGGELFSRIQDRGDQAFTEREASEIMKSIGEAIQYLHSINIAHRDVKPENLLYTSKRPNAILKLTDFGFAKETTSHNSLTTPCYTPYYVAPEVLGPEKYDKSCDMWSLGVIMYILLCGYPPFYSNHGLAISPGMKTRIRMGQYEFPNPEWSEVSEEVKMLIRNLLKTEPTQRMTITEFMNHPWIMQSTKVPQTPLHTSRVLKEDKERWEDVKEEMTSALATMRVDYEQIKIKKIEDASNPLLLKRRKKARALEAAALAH

The assay concerns the target T1, p38a activated, mitogen-activated protein kinase-activated protein kinase 2 (MAPKAP-K2 or MK2) enzyme (Homo sapiens, UniProt P49137).
T1 construct: purchased Invitrogen PV3317
The experiment in a line: MK2 OMNIA biochemical assay (AssayQuant continuous-read kinase assay). Conditions: [MK-2]=0.05 nM, [ATP]=100 μM, [AQT0425]=10 μM. The source says: Example 56.2. Mitogen-Activated Protein Kinase-Activated Protein Kinase 2 AssayQuant Technologies® Assay for Compound Potency Assessment (MK2 OMNIA Biochemical Assay)
The protocol below describes a continuous-read kinase assay optimized to measure potency of compounds against p38a activated, mitogen-activated protein kinase-activated protein kinase 2 (MAPKAP-K2 or MK2) enzyme.
A 1.25× stock solution of MK2 (PV3317, from Invitrogen) and a 5× stock solution of ATP and Sox conjugated peptide substrate, AQT0425 (CSKS-AQT0425B, from AssayQuant Technologies), were prepared in 1× kinase reaction buffer consisting of 50 mM HEPES, pH 7.5, 0.01% Brij-35, 0.55 mM EGTA, 10 mM MgCl2 and 1 mM DTT.
10 μL of the ATP and substrate solution mix was added to a Coming (3574) 384-well, white, non-binding surface microtiter plate containing 0.5 μL of serially diluted test compounds prepared in DMSO. The reactions were started with the addition of 40 μL of the enzyme solution and monitored every 71 seconds for 240 min at kex 360/λem 485 in a Synergy H4 plate reader from BioTek at room temperature.
The initial linear portions of the net progress curves were fit according to a linear equation to yield the slope and percentage of inhibition (% inhibition) at each compound concentration. The net progress curves obtained during the entirety of reactions were also fit according to an ascending single-exponential equation (Eq. 1) to yield Vobs values at each compound concentration. Plots of % Inhibition versus degrader concentrations were fit according to a dose-response equation (Eq. 2) to generate IC50 and Hill slope values while plots of Vobs versus degrader concentration were fit according to Equation 3 (Eq. 3) to generate apparent Kinact values using the GraphPad PRISM software.
where F is the fluorescence intensity from the plate reader, V0 is a constant reflecting the relationship between the instrument readout and product concentration, t is time, e is Euler's number, and Vobs is the observed inactivation rate constant.
where % Inhibition is percentage of inhibition, IC50 is half maximal inhibitory concentration, [I] is the degraders concentration, and n is the Hill slope.
where kobs is the observed inactivation rate constant, Kinact is the apparent inactivation rate constant, K1 is the apparent inhibition constant, and [I] is the degrader concentration.
Regarding `C[C@@H]1COc2c(sc3ccc4nc(-c5cccc(N6CCN(CCN7CCN(c8ccc9c(C%10CCC(=O)NC%10=O)nn(C)c9c8)CC7)CC6)c5)ccc4c23)C(=O)N1` (stereo partly drawn) [Ex 17, 3-(1-Methyl-6-(4-(2-(4-(3-((R)-10-methyl-8-oxo-8,9,10,11-tetrahydro-[1,4]oxazepino[7′,6′:4,5]thieno[3,2-f]quinolin-3-yl)phenyl)piperazin-1-yl)ethyl)piperazin-1-yl)-1H-indazol-3-yl)piperidine-2,6-dione], the half-inhibitory concentration (IC50) was < 150 nM.
Take `C[C@@H]1CNc2c(sc3ccc4nc(-c5cccc(C6CCN(CCN7CCN(c8ccc(C9CCC(=O)NC9=O)cc8)CC7)CC6)c5)ccc4c23)C(=O)N1` (stereo partly drawn) [Ex 18, 3-(4-(4-(2-(4-(3-((R)-10-Methyl-8-oxo-9,10,11,12-tetrahydro-8H-[1,4]diazepino[5′,6′:4,5]thieno[3,2-f]quinolin-3-yl)phenyl)piperidin-1-yl)ethyl)piperazin-1-yl)phenyl)piperidine-2,6-dione]: the IC50 was < 150 nM.
For `C[C@@H]1CNc2c(sc3ccc4nc(-c5cccc(C6CCN(CCN7CCN(c8ccc9c(C%10CCC(=O)NC%10=O)nn(C)c9c8)CC7)CC6)c5)ccc4c23)C(=O)N1` (stereo partly drawn) [Ex 19, 3-(1-Methyl-6-(4-(2-(4-(3-((R)-10-methyl-8-oxo-9,10,11,12-tetrahydro-8H-[1,4]diazepino[5′,6′:4,5]thieno[3,2-f]quinolin-3-yl)phenyl)piperidin-1-yl)ethyl)piperazin-1-yl)-1H-indazol-3-yl)piperidine-2,6-dione], the IC50 was < 150 nM.
As for `C[C@@H]1CNc2c(sc3ccc4nc(-c5ccc(N6CCN(CCN7CCC(c8ccc(C9CCC(=O)NC9=O)cc8)CC7)CC6)cc5)ccc4c23)C(=O)N1` (stereo partly drawn) [Ex 20, 3-(4-(1-(2-(4-(4-((R)-10-Methyl-8-oxo-9,10,11,12-tetrahydro-8H-[1,4]diazepino[5′,6′:4,5]thieno[3,2-f]quinolin-3-yl)phenyl)piperazin-1-yl)ethyl)piperidin-4-yl)phenyl)piperidine-2,6-dione], the figure is < 150 nM; as for `C[C@@H]1CNc2c(sc3ccc4nc(-c5ccc(N6CCN(CCN7CCN(c8ccc9c(C%10CCC(=O)NC%10=O)nn(C)c9c8)CC7)CC6)cc5)ccc4c23)C(=O)N1` (stereo partly drawn) [Ex 21, 3-(1-Methyl-6-(4-(2-(4-(4-((R)-10-methyl-8-oxo-9,10,11,12-tetrahydro-8H-[1,4]diazepino[5′,6′:4,5]thieno[3,2-f]quinolin-3-yl)phenyl)piperazin-1-yl)ethyl)piperazin-1-yl)-1H-indazol-3-yl)piperidine-2,6-dione], 151 to 500 nM; as for `C[C@@H]1CNc2c(sc3ccc4nc(-c5ccc(N6CCN(CCN7CCN(c8ccc(C9CCC(=O)NC9=O)cc8)CC7)CC6)cc5)ccc4c23)C(=O)N1` (stereo partly drawn) [Ex 22, 3-(4-(4-(2-(4-(4-((R)-10-Methyl-8-oxo-9,10,11,12-tetrahydro-8H-[1,4]diazepino[5′,6′:4,5]thieno[3,2-f]quinolin-3-yl)phenyl)piperazin-1-yl)ethyl)piperazin-1-yl)phenyl)piperidine-2,6-dione], 151 to 500 nM.
Turning to `C[C@@H]1CNc2c(sc3ccc4nc(-c5ccc(N6CCN(C(=O)C(=O)N7CCN(c8ccc(C9CCC(=O)NC9=O)cc8)CC7)CC6)cc5)ccc4c23)C(=O)N1` (stereo partly drawn) [Ex 23, 3-(4-(4-(2-(4-(4-((R)-10-Methyl-8-oxo-9,10,11,12-tetrahydro-8H-[1,4]diazepino[5′,6′:4,5]thieno[3,2-f]quinolin-3-yl)phenyl)piperazin-1-yl)-2-oxoacetyl)piperazin-1-yl)phenyl)piperidine-2,6-dione], the IC50 was < 150 nM.
Then `C[C@@H]1CNc2c(sc3ccc4nc(-c5ccc(N6CC7CC(C6)N7CCN6CCN(c7ccc(C8CCC(=O)NC8=O)cc7)CC6)cc5)ccc4c23)C(=O)N1` (stereo partly drawn) [Ex 24, 3-(4-(4-(2-(3-(4-((R)-10-Methyl-8-oxo-9,10,11,12-tetrahydro-8H-[1,4]diazepino[5′,6′:4,5]thieno[3,2-f]quinolin-3-yl)phenyl)-3,6-diazabicyclo[3.1.1]heptan-6-yl)ethyl)piperazin-1-yl)phenyl)piperidine-2,6-dione], with < 150 nM; and `C[C@@H]1COc2c(sc3ccc4nc(-c5ccc(N6CCN(CCN7CCN(c8ccc(C9CCC(=O)NC9=O)cc8)CC7)CC6)cc5)ccc4c23)C(=O)N1` (stereo partly drawn) [Ex 25, 3-(4-(4-(2-(4-(4-((R)-10-Methyl-8-oxo-8,9,10,11-tetrahydro-[1,4]oxazepino[7′,6′:4,5]thieno[3,2-f]quinolin-3-yl)phenyl)piperazin-1-yl)ethyl)piperazin-1-yl)phenyl)piperidine-2,6-dione], with 151 to 500 nM.
Then `C[C@@H]1COc2c(sc3ccc4nc(-c5ccc(N6CCN(CCN7CCN(c8ccc9c(C%10CCC(=O)NC%10=O)nn(C)c9c8)CC7)CC6)cc5)ccc4c23)C(=O)N1` (stereo partly drawn) [Ex 26], with < 150 nM; and `C[C@@H]1CNc2c(sc3ccc4nc(-c5ccc(C6CCN(CCN7CCN(c8ccc(C9CCC(=O)NC9=O)cc8)CC7)CC6)cc5)ccc4c23)C(=O)N1` (stereo partly drawn) [Ex 27, 3-(4-(4-(2-(4-(4-((R)-10-Methyl-8-oxo-9,10,11,12-tetrahydro-8H-[1,4]diazepino[5′,6′:4,5]thieno[3,2-f]quinolin-3-yl)phenyl)piperidin-1-yl)ethyl)piperazin-1-yl)phenyl)piperidine-2,6-dione], with < 150 nM.
Then `C[C@@H]1CNc2c(sc3ccc4nc(-c5ccc(C6CCN(CCN7CCN(c8ccc9c(C%10CCC(=O)NC%10=O)nn(C)c9c8)CC7)CC6)cc5)ccc4c23)C(=O)N1` (stereo partly drawn) [Ex 28, 3-(1-Methyl-6-(4-(2-(4-(4-((R)-10-methyl-8-oxo-9,10,11,12-tetrahydro-8H-[1,4]diazepino[5′,6′:4,5]thieno[3,2-f]quinolin-3-yl)phenyl)piperidin-1-yl)ethyl)piperazin-1-yl)-1H-indazol-3-yl)piperidine-2,6-dione], with < 150 nM; and `C[C@@H]1CNc2c(sc3ccc4nc(-c5ccc(C6CCN(CCN7CCC(c8ccc(C9CCC(=O)NC9=O)cc8)CC7)CC6)cc5)ccc4c23)C(=O)N1` (stereo partly drawn) [Ex 29, 3-(4-(1-(2-(4-(4-((R)-10-Methyl-8-oxo-9,10,11,12-tetrahydro-8H-[1,4]diazepino[5′,6′:4,5]thieno[3,2-f]quinolin-3-yl)phenyl)piperidin-1-yl)ethyl)piperidin-4-yl)phenyl)piperidine-2,6-dione], with < 150 nM.
For the molecule `C[C@@H]1CNc2c(sc3ccc4nc(-c5ccc(C6CN(CCN7CCN(c8ccc(C9CCC(=O)NC9=O)cc8)CC7)C6)cc5)ccc4c23)C(=O)N1` (stereo partly drawn) [Ex 30, 3-(4-(4-(2-(3-(4-((R)-10-Methyl-8-oxo-9,10,11,12-tetrahydro-8H-[1,4]diazepino[5′,6′:4,5]thieno[3,2-f]quinolin-3-yl)phenyl)azetidin-1-yl)ethyl)piperazin-1-yl)phenyl)piperidine-2,6-dione], the IC50 was < 150 nM.
Then `C[C@@H]1CNc2c(sc3ccc4nc(-c5ccc(C6=CCN(CCN7CCN(c8ccc(C9CCC(=O)NC9=O)cc8)CC7)CC6)cc5)ccc4c23)C(=O)N1` (stereo partly drawn) [Ex 31, 3-(4-(4-(2-(4-(4-((R)-10-Methyl-8-oxo-9,10,11,12-tetrahydro-8H-[1,4]diazepino[5′,6′:4,5]thieno[3,2-f]quinolin-3-yl)phenyl)-3,6-dihydropyridin-1(2H)-yl)ethyl)piperazin-1-yl)phenyl)piperidine-2,6-dione], with < 150 nM.
